Test results from publication PMC5617480 (Oncotarget, 2017).
Read-outs that look alike come from different tables or passages of the source.

What was measured:
Hep-G2 cells [1] = test system: Hep-G2 cells; parameters: method as in earlier work; conditions: Hep-G2, 48 h; ref [1]; cited from earlier work
ctDNA = test system: ctDNA; parameters: method as in earlier work; conditions: ref [1], cited from earlier work; for ctDNADC50/ctDNADC50: FID selectivity ratio; for ctDNADC50: FID
HL-7702 normal cells = experiment: Cytotoxicity assay (MTT assay); assay type: cell-based, human; conditions: for Inhibitory rates (%): HL-7702, 20 μM; for IC50: HL-7702, 24 h
Procedure: (§1) To evaluate the cytotoxicity of chiral platinum(II) complexes, HeLa, BEL-7402, MGC80-3, BEL-7404, A549, Hep-G2 and HL-7702 cells (normal cells) were treated with varying concentrations of complexes 1–6 and cisplatin (positive control, cisplatin was dissolved at a concentration of 1.0 mM in 0.154 M NaCl) for 24 h and 48 h. The cell viability of each experimental group was examined by MTT assays. […] [61, 62].
(§2) Materials 100 U/mL penicillin and 100 μg/mL streptomycin in 25 cm2 culture flasks at 37 °C humidified atmosphere with Tris, RNase A, and propidium iodide (PI) were 5% CO2. All cells to be tested in the following assays have purchased from Sigma. The antibody of mutp53, a passage number of 3-6. […]
(§3) were purchased from Abcam. Unless otherwise stated, BEL-7404, A549, and Hep-G2 cancer-cell lines and HL-spectroscopic titration experiments were carried out in 7702 normal cells) per well were seeded in triplicate in TBS (10 mM pH7.35 Tris-HCl, containing 100 mM KCl). 96-well plates and incubated for 24 h at 37 °C and 5.0% The total RNA isolation kit and the two-step RT-PCR kit CO2/95.0% air. Then graded amounts of compound were purchased from TIANGEN. DNA oligomers (highly added to the wells in 10.0 μL of FBS free culture medium polymerized stored at 4 °C; long-term storage at −20 °C) and the plates were incubated in a 5% CO2 humidified are listed in Supplementary Table 1 and were obtained from atmosphere for 24 h and 48 h. Six replica wells were used Shanghai Sangon Biological Engineering Technology & as controls. Each the cells were grew for 12.0 h before Services (Shanghai, China). All tumor cell lines (HeLa, treatment to reach 70.0% confluency and 20.0 μL of tested BEL-7402, MGC80-3, BEL-7404, A549, Hep-G2 cancer- various concentrations of compounds were added to each cell lines and normal liver cell line HL-7702) were obtained well. The final concentration of the tested complexes from the Shanghai Institute for Biological Science (China). or compounds were kept at 1.25, 2.5, 5, 10, 20 μM, Stock solutions of all the compounds (2.0 mM) were made respectively. After 24 h or 48 h of culture, 0.1 mg of in DMSO, and further dilutions to working concentrations MTT (in 20 μL of PBS) was added to each well, and cells were made with corresponding buffer. were incubated at 37 °C for 6 h. The formed formazan crystals were then dissolved in 100 μL of DMSO and the Instrumentation absorbance was read by enzyme labeling instrument with Infrared spectra were obtained on a Perkine Elmer 490/630 nm double wavelength measurement. The final FT-IR Spectrometer. Elemental analyses (C, H, N) IC50 values were calculated by the Bliss method (n = 5). were carried out on a Perkin Elmer Series II CHNS/O All tests were repeated in at least three independent trials. […]

HeLa cells = experiment: Cytotoxicity assay (MTT assay); assay type: cell-based, human; conditions: for Inhibitory rates (%): 20 μM
Procedure: as §1, with “62]. […] Therefore, complex 6 (10 μM) was selected for cell apoptosis analysis by flow-cytometry, RT-PCR, caspase-3/9 activation assays, western blot and transfection assays in BEL-7404 cells for 24 h. In addition, this observed difference in in vitro cytotoxicity between the three complexes 4–6 could be due to the influence of the chirality of the FOA ligand [68]. […]” for “62].”
as §2, §3
(§4) 10.0 min. The cell pellet obtained was dissolved in 1.0 M
(§5) The region between 200 and 400 nm was scanned for each NaOH (1.0 mL) and diluted with 2.0% (v/v) HNO3 (5.0 sample. MTT assay was performed on M1000 microplate mL) for determining whole cell Pt content. Another set reader (Tecan Trading Co. Ltd, Shanghai, China). Cell was treated similarly, nuclear proteins, nuclear fraction, cycle and apoptosis analysis was recorded on FACS Aria cytoplasmic protein, membrane proteins and other fraction II Flow Cytometer (BD Biocsiences, San Jose, USA). were isolated as described by Chen and Schreiber et al. And the each final solution was made up to 5.0 mL
(§6) Cytotoxicity assay (MTT assay) using 2.0% (v/v) HNO3. The amount of Pt taken up by the cells was determined by ICP-MS. The instrument was […]

BEL-7402 cells = experiment: Cytotoxicity assay (MTT assay); assay type: cell-based, human; conditions: for Inhibitory rates (%): BEL-7402, 20 μM; for IC50: BEL-7402, 24 h
Procedure: as §1, with “62]. […] Therefore, complex 6 (10 μM) was selected for cell apoptosis analysis by flow-cytometry, RT-PCR, caspase-3/9 activation assays, western blot and transfection assays in BEL-7404 cells for 24 h. In addition, this observed difference in in vitro cytotoxicity between the three complexes 4–6 could be due to the influence of the chirality of the FOA ligand [68]. […]” for “62].”
as §2, §3, §4, §5, §6

Hep-G2 cells [2] = experiment: Cytotoxicity assay (MTT assay); assay type: cell-based, human; conditions: for Inhibitory rates (%): Hep-G2, 20 μM; for IC50: Hep-G2, 24 h
Procedure: as §1, with “62]. […] Therefore, complex 6 (10 μM) was selected for cell apoptosis analysis by flow-cytometry, RT-PCR, caspase-3/9 activation assays, western blot and transfection assays in BEL-7404 cells for 24 h. In addition, this observed difference in in vitro cytotoxicity between the three complexes 4–6 could be due to the influence of the chirality of the FOA ligand [68]. […]” for “62].”
as §2, §3, §4, §5, §6

MGC80-3 cells = experiment: Cytotoxicity assay (MTT assay); assay type: cell-based, human; conditions: for Inhibitory rates (%): MGC80-3, 20 μM; for IC50: MGC80-3, 24 h
Procedure: as §1, with “62]. […] Therefore, complex 6 (10 μM) was selected for cell apoptosis analysis by flow-cytometry, RT-PCR, caspase-3/9 activation assays, western blot and transfection assays in BEL-7404 cells for 24 h. In addition, this observed difference in in vitro cytotoxicity between the three complexes 4–6 could be due to the influence of the chirality of the FOA ligand [68]. […]” for “62].”
as §2, §3, §4, §5, §6

BEL-7404 cells = experiment: Cytotoxicity assay (MTT assay); assay type: cell-based, human; conditions: for Inhibitory rates (%): BEL-7404, 20 μM; for IC50: BEL-7404, 24 h
Procedure: as §1, with “62]. […] Therefore, complex 6 (10 μM) was selected for cell apoptosis analysis by flow-cytometry, RT-PCR, caspase-3/9 activation assays, western blot and transfection assays in BEL-7404 cells for 24 h. In addition, this observed difference in in vitro cytotoxicity between the three complexes 4–6 could be due to the influence of the chirality of the FOA ligand [68]. […]” for “62].”
as §2, §3, §4, §5, §6

A549 cells = experiment: Cytotoxicity assay (MTT assay); assay type: cell-based, human; conditions: for Inhibitory rates (%): A549, 20 μM; for IC50: A549, 24 h
Procedure: as §1, with “62]. […] Therefore, complex 6 (10 μM) was selected for cell apoptosis analysis by flow-cytometry, RT-PCR, caspase-3/9 activation assays, western blot and transfection assays in BEL-7404 cells for 24 h. In addition, this observed difference in in vitro cytotoxicity between the three complexes 4–6 could be due to the influence of the chirality of the FOA ligand [68]. […]” for “62].”
as §2, §3, §4, §5, §6

[3] = test system: HTG21 (human telomeric) G4; parameters: method as in earlier work; conditions: ref [1], cited from earlier work; for ctDNADC50/HTG21DC50: FID selectivity ratio; for HTG21DC50: FID
ds26 = test system: ds26; parameters: method as in earlier work; conditions: ref [1], cited from earlier work; for ctDNADC50/ds26DC50: FID selectivity ratio; for ds26DC50: FID

SMILES	IC50 (Hep-G2 cells [1])	ctDNADC50/ctDNADC50 (ctDNA)	ctDNADC50 (ctDNA)	selectivity index factor, IC50 (normal HL-7702 cells)/IC50 (BEL-7404 tumor cells) (HL-7702 normal cells; 24 h)	Inhibitory rates (%) (HL-7702 normal cells; 24 h)	Inhibitory rates (%) (HL-7702 normal cells; 48 h)	IC50 (HL-7702 normal cells)	Inhibitory rates (%) (HeLa cells; 24 h)	Inhibitory rates (%) (HeLa cells; 48 h)	IC50 (HeLa cells; 24 h)	Inhibitory rates (%) (BEL-7402 cells; 24 h)	Inhibitory rates (%) (BEL-7402 cells; 48 h)	IC50 (BEL-7402 cells)	Inhibitory rates (%) (Hep-G2 cells [2]; 24 h)	Inhibitory rates (%) (Hep-G2 cells [2]; 48 h)	IC50 (Hep-G2 cells [2])	Inhibitory rates (%) (MGC80-3 cells; 24 h)	Inhibitory rates (%) (MGC80-3 cells; 48 h)	IC50 (MGC80-3 cells)	Inhibitory rates (%) (BEL-7404 cells; 24 h)	also measured
O=C(NCC(O)CO)c1cnc2c3c(cccc13)-c1ccccc1C2=O.[Cl-].[Cl-].[Pt+2] (racemic) [ligand 1, R/S-(±)-FOA]	32.9 ± 0.5 µM	1.00	63.96 µM	3.4	11.0 ± 1.6%	15.2 ± 0.6%	141 ± 1.7 µM	25.6± 1.2%	33.6 ± 1.3%	69.3 ± 1.3 µM	30.5 ± 1.4%	38.9 ± 1.6%	54.9 ± 1.2 µM	21.3 ± 1.9%	27.8 ± 0.8%	73.5 ± 2 µM	18.6 ± 0.3%	24.9 ± 2.2%	87.2 ± 0.5 µM	35.9 ± 0.7%	Inhibitory rates (%) (BEL-7404 cells; 48 h): 51.9 ± 2.7%; IC50 (BEL-7404 cells): 41.2 ± 0.6 µM; Inhibitory rates (%) (A549 cells; 24 h): 32.6 ± 0.4%; Inhibitory rates (%) (A549 cells; 48 h): 48.4 ± 1.6%; IC50 (A549 cells): 45.8 ± 0.3 µM; ctDNADC50/HTG21DC50 [3]: 25.79; HTG21DC50 [3]: 2.48 µM; ctDNADC50/ds26DC50 (ds26): 5.31; ds26DC50 (ds26): 12.05 µM
O=C(NC[C@@H](O)CO)c1cnc2c3c(cccc13)-c1ccccc1C2=O.[Cl-].[Cl-].[Pt+2] [ligand 2, R-(+)-FOA]	38.9 ± 1.3 µM	1.00	39.98 µM	1.4	25.2 ± 0.3%	30.6 ± 2.1%	101.8 ± 0.4 µM	18.9 ± 0.6%	26.8 ± 1.2%	87.5 ± 0.8 µM	17.0 ± 0.6%	22.3 ± 1.1%	94.1 ± 0.5 µM	17.5 ± 0.4%	23.6 ± 2.3%	90.6 ± 0.3 µM	9.6 ± 0.6%	19.6 ± 0.8%	158.1 ± 0.6 µM	25.1 ± 1.2%	Inhibitory rates (%) (BEL-7404 cells; 48 h): 50.0 ± 0.6%; IC50 (BEL-7404 cells): 72.3 ± 1 µM; Inhibitory rates (%) (A549 cells; 24 h): 28.9 ± 1.4%; Inhibitory rates (%) (A549 cells; 48 h): 47.9 ± 0.9%; IC50 (A549 cells): 67.2 ± 1.5 µM; ctDNADC50/HTG21DC50 [3]: 17.78; HTG21DC50 [3]: 2.25 µM; ctDNADC50/ds26DC50 (ds26): 2.77; ds26DC50 (ds26): 14.41 µM
O=C(NC[C@H](O)CO)c1cnc2c3c(cccc13)-c1ccccc1C2=O.[Cl-].[Cl-].[Pt+2] [ligand 3, S-(–)-FOA]	24.9 ± 0.4 µM	1.00	89.82 µM	3.5	23.4 ± 0.9%	27.5 ± 1.2%	105.3 ± 1 µM	31.2 ± 0.4%	36.6 ± 1.5%	43.2 ± 0.4 µM	35.1 ± 1.3%	41.8 ± 2.5%	45.8 ± 1.4 µM	24.9 ± 0.8%	29.3 ± 0.9%	70.1 ± 0.8 µM	24.2 ± 0.5%	28.2 ± 1.4%	78.2 ± 0.7 µM	42.8 ± 0.4%	Inhibitory rates (%) (BEL-7404 cells; 48 h): 64.8 ± 1.3%; IC50 (BEL-7404 cells): 30.1 ± 0.7 µM; Inhibitory rates (%) (A549 cells; 24 h): 37.2 ± 0.8%; Inhibitory rates (%) (A549 cells; 48 h): 51.2 ± 3.4%; IC50 (A549 cells): 36.4 ± 1 µM; ctDNADC50/HTG21DC50 [3]: 48.55; HTG21DC50 [3]: 1.85 µM; ctDNADC50/ds26DC50 (ds26): 11.40; ds26DC50 (ds26): 7.88 µM
